Values quoted from earlier work as cited in paper PMC6269118, “Populene D Analogues: Design, Concise Synthesis and Antiproliferative Activity” (Molecules, 2012).
≈ marks a conversion by molar mass, not a printed value.

How the values were obtained:
Set-up in all cases: method as in PMID 18553924
Conditions in all cases: cited from earlier work
cervical cancer (HeLa) = tested on: cervical cancer (HeLa)
breast cancer (MCF-7) = tested on: breast cancer (MCF-7)
colon cancer (HT-29) = tested on: colon cancer (HT-29)
oral cancer (KB) = tested on: oral cancer (KB)
B. subtilis = tested on: B. subtilis

Question: Which results are given for `Cc1cc2c(c(O)c1O)[C@H](C)CC1=C2[C@@H](C)COC1(C)C` [Populene D]?
Answer: IC50 (cervical cancer (HeLa)): 1.85 µg/mL (≈ 6.41 µM); IC50 (breast cancer (MCF-7)): 0.95 µg/mL (≈ 3.29 µM); IC50 (colon cancer (HT-29)): 2.37 µg/mL (≈ 8.22 µM); IC50 (oral cancer (KB)): 3.10 µg/mL (≈ 10.7 µM); MIC (B. subtilis): 4.69 µg/mL (≈ 16.3 µM)
